Test results published in US20230121689A1, “CEPHALOSPORIN ANTIBACTERIAL COMPOUND AND PHARMACEUTICAL APPLICATION THEREOF” (priority 2020, published 2023).
≈ marks a conversion by molar mass, not a printed value. Like-named read-outs stand apart in the source and are kept apart here.

Legend:
[1] = tested on: Control strain Escherichia coli ATCC 25922; test: Test Example 2: antibacterial activity test (MIC); assay type: cell-based; settings: ATCC25922, ID-CAMHB, ATCC 25922, read-out: ID-CAMHB, MIC
Description: (§1) 1. The test compounds were dissolved in sterile normal saline, vortexed for uniformly mixing, and diluted in a 2-fold dilution with the sterile normal saline (11 concentration points in total). The test concentration range was 32-0.031 μg/mL, and two duplicate wells were set for each concentration. Additional wells without drug dosing were set as growth controls. 2. 4 μL of the diluent was added to 196 μL of the bacterial suspension in a 96-well plate (the bacterial count in the bacterial suspension was 2-8×10^5 colony forming units/mL). 3.
(§2) The minimum inhibitory concentration (MIC) assay was performed with reference to the Clinical and Laboratory Standards Institute (CLSI) guidelines.

[2] = tested on: Carbapenem-resistant Enterobacteriaceae (CRE, Klebsiella pneumoniae); test: Test Example 2: antibacterial activity test (MIC); assay type: cell-based; settings: ID-CAMHB, read-out: ID-CAMHB, MIC
Description: as §1, §2

[3] = tested on: Carbapenem-resistant Pseudomonas aeruginosa (CRPA, Pseudomonas aeruginosa); test: Test Example 2: antibacterial activity test (MIC); assay type: cell-based; settings: ID-CAMHB, read-out: ID-CAMHB, MIC
Description: as §1, §2

[4] = tested on: Control Strain Pseudomonas aeruginosa ATCC 27853; test: Test Example 2: antibacterial activity test (MIC); assay type: cell-based; settings: ATCC27853, ID-CAMHB, ATCC 27853, read-out: ID-CAMHB, MIC
Description: as §1, §2

[5] = tested on: Carbapenem-resistant Acinetobacter baumannii (CRAB, Acinetobacter baumannii); test: Test Example 2: antibacterial activity test (MIC); assay type: cell-based; settings: ID-CAMHB, read-out: ID-CAMHB, MIC
Description: as §1, §2

[6] = tested on: Carbapenem-resistant Enterobacteriaceae (CRE); test: Test Example 1: antibacterial activity test (MIC); assay type: cell-based
Description: (§3) The test compounds were diluted in a gradient and used for an MIC assay on the test strains. The test compounds at an initial assay concentration of 32 μg/mL were diluted in a 2-fold gradient (11 concentration points in total), and two duplicate wells were set for each concentration. Additional wells without drug dosing were set as growth controls. The minimum inhibitory concentration (MIC) assay was performed with reference to the Clinical and Laboratory Standards Institute (CLSI) guidelines.
(§4) After the frozen strains were subcultured, a single colony was picked and re-suspended in normal saline or sterile water in a tube. The bacterial suspension was vortexed and adjusted to 0.5 McF using a spectrophotometer at the wavelength of 530 nm. The bacterial solution was taken by a pipette, added to a culture medium, diluted and mixed well, and seeded to a bacterial assay plate.
(§5) The 96-well plate was affixed with a disposable sealing film, shaken and mixed well, and visually observed using a plate reader. The minimum concentration of the compounds capable of inhibiting the growth of bacteria was defined as MIC as compared to the growth controls.

[7] = tested on: Carbapenem-resistant Acinetobacter baumannii (CRAB); test: Test Example 1: antibacterial activity test (MIC); assay type: cell-based
Description: as §3, §4, §5

[8] = tested on: Carbapenem-resistant Pseudomonas aeruginosa (CRPA); test: Test Example 1: antibacterial activity test (MIC); assay type: cell-based
Description: as §3, §4, §5

[9] = Test Example 3: pharmacokinetic study in cynomolgus monkeys; assay type: in vivo; settings: cynomolgus monkey, plasma, 10 mg/kg single intravenous infusion, individual animals
Description: An appropriate amount of a test compound was weighed precisely and added to a container, and 0.9% sodium chloride injection and 0.2 M NaOH solution were added thereto in an ice bath until the test compound was completely dissolved, so that a sample solution at a concentration of 2 mg/mL was obtained followed by storage at 2-8° C. for later use.
Species and strain: cynomolgus monkey Animal grade: general grade Animal source: Guangxi Xiongsen Primate Experimental Animal Breeding Development Co., Ltd. Number of the using of laboratory animal: SYXK (Su) 2019-0012
6 cynomolgus monkeys (half male and half female) were selected and randomly divided into 3 groups with 1 animal/sex in each group. The cynomolgus monkeys were administered with the test sample at a dose of 10 mg/kg by the single intravenous infusion. Blood samples were collected from each group of animals at the following time points: before administration, and 5 min, 15 min, 0.5 h, 1 h, 2 h, 4 h, 6 h, and 8 h after administration. In the test, the concentration of each test compound in the plasma of the cynomolgus monkey was detected by the LC-MS/MS method, and the lower limit of quantification of the analysis methods for the plasma samples were all 1 μg/mL. The plasma concentration data were analyzed by the non-compartmental analysis (NCA) of the analysis software for pharmacokinetic data, WinNonlin, pharmacokinetic parameters were calculated, and pharmacokinetic characteristics of the test compounds in cynomolgus monkeys after administration were investigated, with the results shown in the following table

[10] = both sexes, cynomolgus, iv, 10 mg/kg

SMILES: CC(C)(O/N=C(\C(=O)N[C@@H]1C(=O)N2C(C(=O)[O-])=C(C[N+]3(CCNC(=O)c4ccc(O)c(O)c4Cl)CCCC3)CS[C@H]12)c1csc(N)n1)C(=O)O [Cefiderocol, reference compound]
- MIC [1]: 0.0625 µg/mL (≈ 0.0831 µM)
- MIC ([2]; FDA-CDC AR-BANK #0361 (TEM-1; SHV-12; KPC-2)): 2 µg/mL (≈ 2.66 µM)
- MIC ([2]; FDA-CDC AR-BANK #0362 (TEM-1; SHV-11; KPC-2)): 0.5 µg/mL (≈ 0.665 µM)
- MIC ([2]; FDA-CDC AR-BANK #0363 (TEM-1; SHV-12; KPC-2)): 0.25 µg/mL (≈ 0.332 µM)
- MIC ([2]; FDA-CDC AR-BANK #0438 (aph(3′)-Ia, dfrA12, KPC-3, OmpK35, oqxA, oqxB, SHV-11)): 2 µg/mL (≈ 2.66 µM)
- MIC ([2]; FDA-CDC AR-BANK #0453 (KPC-3, OmpK35, oqxA, oqxB, SHV-11, TEM-1B)): 1 µg/mL (≈ 1.33 µM)
- MIC ([3]; FDA-CDC AR-BANK #0439 (aac(6′)-Il, aadA1b, BCR1, IMP-18, OXA-50)): 0.25 µg/mL (≈ 0.332 µM)
- MIC ([3]; FDA-CDC AR-BANK #0441 (KPC-2)): 1 µg/mL (≈ 1.33 µM)
- MIC ([3]; FDA-CDC AR-BANK #0444 (aac(6′)-Il, dfrB5, OXA-4, tet(G), VIM-2)): 2 µg/mL (≈ 2.66 µM)
- MIC ([3]; FDA-CDC AR-BANK #0457 (aadA6, VIM-2)): 0.125 µg/mL (≈ 0.166 µM)
- MIC [4]: 0.0625 µg/mL (≈ 0.0831 µM)
- MIC ([5]; FDA-CDC AR-BANK #0036 (strB, OXA-65, OXA-24, strA, sul2)): 0.25 µg/mL (≈ 0.332 µM)
- MIC ([5]; FDA-CDC AR-BANK #0052 (OXA-58, OXA-100, sul2)): 0.0625 µg/mL (≈ 0.0831 µM)
- MIC ([5]; FDA-CDC AR-BANK #0063 (OXA-23, OXA-65, OXA-24, sul2)): 8 µg/mL (≈ 10.6 µM)
- MIC ([5]; FDA-CDC AR-BANK #0070 (OXA-58, OXA-100, sul2)): 0.125 µg/mL (≈ 0.166 µM)
- MIC ([5]; FDA-CDC AR-BANK #0101 (strB, OXA-65, OXA-24, strA, sul2)): 1 µg/mL (≈ 1.33 µM)
- MIC ([6]; CRE strain No. 100109): 1 µg/mL (≈ 1.33 µM)
- MIC ([6]; CRE strain No. 100186): 0.5 µg/mL (≈ 0.665 µM)
- MIC ([6]; CRE strain No. 110502): 12 µg/mL (≈ 16 µM)
- MIC ([6]; CRE strain No. 110525): 6 µg/mL (≈ 7.98 µM)
- MIC ([6]; CRE strain No. 311277): 5 µg/mL (≈ 6.65 µM)
- MIC ([7]; CRAB strain No. 100085): 0.5 µg/mL (≈ 0.665 µM)
- MIC ([7]; CRAB strain No. 100333): 2 µg/mL (≈ 2.66 µM)
- MIC ([7]; CRAB strain No. 110440): 1.5 µg/mL (≈ 1.99 µM)
- MIC ([7]; CRAB strain No. 110477): 1 µg/mL (≈ 1.33 µM)
- MIC ([7]; CRAB strain No. 110517): 0.5 µg/mL (≈ 0.665 µM)
- MIC ([8]; CRPA strain No. 100110): 0.047 µg/mL (≈ 0.0625 µM)
- MIC ([8]; CRPA strain No. 110163): 1 µg/mL (≈ 1.33 µM)
- MIC ([8]; CRPA strain No. 110224): 0.75 µg/mL (≈ 0.997 µM)
- MIC ([8]; CRPA strain No. 110358): 1 µg/mL (≈ 1.33 µM)
- MIC ([8]; CRPA strain No. 110390): 0.5 µg/mL (≈ 0.665 µM)
- AUC(0-inf) [9, 10]: 32400 ng·h/mL
- AUC(0-t) [9, 10]: 26200 ng·h/mL
- clearance [9, 10]: 5.14 mL/min/kg
- half-life [9, 10]: 51.6 min
- Cmax ([9]; both sexes, cynomolgus, iv, 10 mg/kg, read-out: Cmax): 30500 ng/mL
- MRT ([9]; both sexes, cynomolgus, iv, 10 mg/kg, read-out: MRT): 42 min
- Vd ([9]; both sexes, cynomolgus, iv, 10 mg/kg, read-out: Vd): 0.381 L/kg
- Tmax ([9]; both sexes): 4.8 min
- AUC last ([9]; 10 mg/kg): 23940 ng·h/mL
- AUCinf ([9]; 10 mg/kg): 28350 ng·h/mL
- CL ([9]; 10 mg/kg): 5.8793 mL/min/kg
- Cmax ([9]; 10 mg/kg): 24330 ng/mL
- Vd ([9]; 10 mg/kg): 0.37963 L/kg
- t1/2 ([9]; 10 mg/kg): 45 min
